Test [1] has as its system Rabbit Psoas myofibrils (skeletal myosin ATPase). Nature of the test: Myofibril ATPase assay, rabbit psoas (skeletal) myofibrils. Type of test: biochemical. The procedure, abridged: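 Values are concentrations giving 75% (Y75) or 125% (Y125) of vehicle ATPase activity, from 4-parameter logistic fits of normalized rates. Rates came from linear regression of A340 over 75 min, NADH oxidation coupled to ADP via PK-LDH. Enzyme source: skeletal myofibrils from rabbit psoas, pH 7.0 pCa buffer.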

Test [2] deals with T1, Porcine ventricle myofibrils (ventricular myosin ATPase) (Sus scrofa, UniProt P79293).
T1 construct: Myofibrils from porcine cardiac muscle was isolated from the left ventricle of Yucatan minipigs; tissue Exemplar Genetics; host or cells: left ventricle of Yucatan minipigs, myofibrils prepared in house
T1 sequence (P79293 whole entry): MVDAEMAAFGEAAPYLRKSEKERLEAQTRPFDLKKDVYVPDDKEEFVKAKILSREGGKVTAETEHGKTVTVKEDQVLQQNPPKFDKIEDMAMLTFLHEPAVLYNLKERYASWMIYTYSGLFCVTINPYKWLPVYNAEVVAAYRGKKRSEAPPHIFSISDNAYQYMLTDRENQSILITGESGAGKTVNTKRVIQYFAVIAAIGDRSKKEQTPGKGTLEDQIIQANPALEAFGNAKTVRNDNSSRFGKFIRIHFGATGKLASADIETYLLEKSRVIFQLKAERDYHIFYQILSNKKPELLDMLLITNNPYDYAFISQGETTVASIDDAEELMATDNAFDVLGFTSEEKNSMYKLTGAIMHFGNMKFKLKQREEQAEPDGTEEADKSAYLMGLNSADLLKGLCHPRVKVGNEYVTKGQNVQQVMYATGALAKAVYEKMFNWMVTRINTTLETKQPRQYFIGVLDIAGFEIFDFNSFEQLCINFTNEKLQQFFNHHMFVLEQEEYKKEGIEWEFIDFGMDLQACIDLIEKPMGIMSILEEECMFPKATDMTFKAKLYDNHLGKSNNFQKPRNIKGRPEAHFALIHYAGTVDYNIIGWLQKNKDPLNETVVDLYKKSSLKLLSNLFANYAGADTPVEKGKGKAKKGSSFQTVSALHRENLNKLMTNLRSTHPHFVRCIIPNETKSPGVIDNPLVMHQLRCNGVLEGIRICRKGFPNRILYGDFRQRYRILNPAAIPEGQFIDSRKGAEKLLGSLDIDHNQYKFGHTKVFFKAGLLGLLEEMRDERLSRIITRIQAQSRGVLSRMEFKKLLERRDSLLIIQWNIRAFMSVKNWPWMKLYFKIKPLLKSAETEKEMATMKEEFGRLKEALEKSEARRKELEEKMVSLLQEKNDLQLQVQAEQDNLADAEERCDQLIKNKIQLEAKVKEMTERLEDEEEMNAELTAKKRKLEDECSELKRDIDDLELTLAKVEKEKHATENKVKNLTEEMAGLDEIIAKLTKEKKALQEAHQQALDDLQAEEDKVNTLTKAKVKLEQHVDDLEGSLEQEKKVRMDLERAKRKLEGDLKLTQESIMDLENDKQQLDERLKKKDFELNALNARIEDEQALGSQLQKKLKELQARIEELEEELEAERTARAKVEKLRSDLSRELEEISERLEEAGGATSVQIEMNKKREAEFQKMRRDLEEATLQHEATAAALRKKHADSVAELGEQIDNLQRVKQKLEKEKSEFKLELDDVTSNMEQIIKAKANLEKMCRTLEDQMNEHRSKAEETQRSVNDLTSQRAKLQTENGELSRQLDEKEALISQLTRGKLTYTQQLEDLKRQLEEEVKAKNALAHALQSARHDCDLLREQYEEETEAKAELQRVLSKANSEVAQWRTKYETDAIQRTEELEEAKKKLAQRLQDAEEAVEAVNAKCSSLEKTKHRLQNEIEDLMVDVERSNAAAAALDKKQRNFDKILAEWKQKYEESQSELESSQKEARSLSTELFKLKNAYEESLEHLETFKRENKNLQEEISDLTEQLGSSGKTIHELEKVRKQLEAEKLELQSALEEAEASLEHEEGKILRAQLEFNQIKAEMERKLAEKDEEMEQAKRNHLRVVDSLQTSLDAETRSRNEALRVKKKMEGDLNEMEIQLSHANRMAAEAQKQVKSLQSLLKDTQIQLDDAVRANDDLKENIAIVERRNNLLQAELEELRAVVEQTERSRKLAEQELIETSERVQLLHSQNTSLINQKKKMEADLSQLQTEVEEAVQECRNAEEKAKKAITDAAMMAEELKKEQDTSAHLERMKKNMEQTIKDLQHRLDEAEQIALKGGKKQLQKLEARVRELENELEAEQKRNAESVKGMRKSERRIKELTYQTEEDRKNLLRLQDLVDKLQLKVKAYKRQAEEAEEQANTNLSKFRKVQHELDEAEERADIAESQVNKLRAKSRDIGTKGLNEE
The test can be described thus: Myofibril ATPase assay, porcine ventricle myofibrils. The class given is biochemical, porcine (Yucatan minipigs). The procedure, abridged:
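Myofibrils isolated from Yucatan minipig left ventricle; coupled PK/LDH NADH assay, pCa buffer pH 7.0, kinetic A340 reads over 75 min. Vehicle-normalized slopes fit 4PL; Y75/Y125 derived.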

Test [3] deals with Porcine atria myofibrils (atrial myosin ATPase). Nature of the test: Myofibril ATPase assay, porcine atria myofibrils. The class given is biochemical. The procedure, abridged:
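Y75 (25% inhibition) or Y125 (activation) values come from 4-parameter logistic fits of vehicle-normalized rates. Rates are linear-regression slopes of NADH absorbance at 340 nm, read kinetically over 75 min, with ADP coupled to NADH oxidation via pyruvate kinase/lactate dehydrogenase.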

Setting [4] is: Y75 value (no ‡ mark), rabbit psoas myofibrils.
[5] abbreviates: Y75 value (no ‡ mark), porcine ventricle myofibrils.
Setting [6] is: Y75 value (no ‡ mark), porcine atria myofibrils.
[7] abbreviates: rabbit psoas myofibrils, Y75 value.
Setting [8] is: porcine ventricle myofibrils, Y75 value.
The mark [9] stands for this setting: porcine atria myofibrils, Y75 value (75% activity relative to no compound).

In the case of `Cc1c(CC(=O)N[C@H](C)c2ncc(C#N)cc2F)c(=O)[nH]c2cccc(C#N)c12` [compound 1080], the “Skeletal EC25” value in test [1] (setting [4]) came out at 0.12 µM. For the same compound, the “Ventricular EC25” value in test [2] (setting [5]) turned out to be 360 nM. Further, the “Atrial EC25” value in test [3] (setting [6]) was 210 nM.

Take `Cc1cc(C#N)nnc1[C@H](C)NC(=O)Cc1c(C)c2cc(F)ccc2[nH]c1=O` [compound 1059]: in test [1] (setting [4]), the “Skeletal EC25” value is 0.39 µM. Further, the “Ventricular EC25” value in test [2] (setting [5]) was determined as 160 nM. Also, the “Atrial EC25” value in test [3] (setting [6]) came to 130 nM.

Take `Cc1c(CC(=O)N[C@@H](CO)c2ccc(C#N)cc2F)c(=O)[nH]c2ccc(C#N)nc12` [compound 221]: the “Skeletal EC25” value in test [1] (setting [7]) came to 2.27 µM. Besides, the “Ventricular EC25” value in test [2] (setting [8]) was 45660 nM. In test [3] (setting [9]), the “Atrial EC25” value was determined as 1120 nM.

Turning to `C[C@@H](NC(=O)Cc1c(C2CC2)c2c(F)c(F)ccc2[nH]c1=O)c1ccc(C#N)cn1` [compound 25], the “Skeletal EC25” value in test [1] (setting [4]) came to 1.68 µM. Moreover, the “Ventricular EC25” value in test [2] (setting [5]) was 100000 nM. Moreover, in test [3] (setting [6]), the “Atrial EC25” value was 100000 nM.

Regarding `COc1nccc2[nH]c(=O)c(CC(=O)N[C@H](C)c3ncc(C#N)cn3)c(C(F)(F)F)c12` (single isomer, unassigned) [compound 3007], the “Skeletal EC25” value in test [1] (setting [7]) came out at 100.00 µM. Also, the “Ventricular EC25” value in test [2] (setting [8]) came to 5730 nM. The “Atrial EC25” value in test [3] (setting [9]) amounted to 100000 nM.

Consider `Cc1nccc2[nH]c(=O)c(CC(=O)N[C@@H](C)c3ccc(C#N)cn3)c(C)c12` (single isomer, unassigned) [compound 254], for which the “Skeletal EC25” value in test [1] (setting [7]) turned out to be 1.78 µM. For the same compound, the “Ventricular EC25” value in test [2] (setting [8]) turned out to be 23410 nM. Further, the “Atrial EC25” value in test [3] (setting [9]) is 18170 nM.

Consider `C[C@H](NC(=O)[C@@H](C)c1cc2c(F)c(F)ccc2[nH]c1=O)c1ccc(F)cc1F` (single isomer, unassigned) [compound 110], for which the “Skeletal EC25” value in test [1] (setting [4]) turned out to be 100.00 µM. For the same compound, in test [2] (setting [5]), the “Ventricular EC25” value was 42600 nM. Also, in test [3] (setting [6]), the “Atrial EC25” value turned out to be 520 nM.

Consider `Cc1nccc2[nH]c(=O)c(CC(=O)N[C@@H]3CCc4cc(C#N)cnc43)c(C)c12` (single isomer, unassigned) [compound 233], for which, in test [1] (setting [7]), the “Skeletal EC25” value was 5.72 µM. Moreover, the “Ventricular EC25” value in test [2] (setting [8]) was found to be 100000 nM. For the same compound, the “Atrial EC25” value in test [3] (setting [9]) was found to be 100000 nM.

Consider `Cc1c(CC(=O)N[C@H](CO)c2ncc(C#N)cc2F)c(=O)[nH]c2ccnc(C#N)c12` (single isomer, unassigned) [compound 245], for which the “Skeletal EC25” value in test [1] (setting [7]) was found to be 0.93 µM. Also, the “Ventricular EC25” value in test [2] (setting [8]) amounted to 9460 nM. In addition, the “Atrial EC25” value in test [3] (setting [9]) worked out at 8370 nM.

As for `Cc1nc(C#N)ccc1[C@@H](C)NC(=O)Cc1c(C)c2cc(F)ccc2[nH]c1=O` [compound 1050], in test [1] (setting [4]), the “Skeletal EC25” value is 3.4 µM. Also, the “Ventricular EC25” value in test [2] (setting [5]) amounted to 2360 nM. In test [3] (setting [6]), the “Atrial EC25” value is 220 nM.

`Cc1c(CC(=O)N[C@@H](C)c2ncc(F)cc2F)c(=O)[nH]c2ccnc(C#N)c12` (single isomer, unassigned) [compound 305]: the “Skeletal EC25” value in test [1] (setting [7]) was found to be 0.02 µM. Moreover, the “Ventricular EC25” value in test [2] (setting [8]) was 570 nM. Moreover, the “Atrial EC25” value in test [3] (setting [9]) was 70 nM.

With `Cc1c(CC(=O)N[C@@H](C)c2ncc(C#N)cn2)c(=O)[nH]c2cccc(F)c12` (single isomer, unassigned) [compound 2042], the “Skeletal EC25” value in test [1] (setting [4]) was found to be 2.39 µM. The “Ventricular EC25” value in test [2] (setting [5]) is 2110 nM. Further, the “Atrial EC25” value in test [3] (setting [6]) turned out to be 550 nM.

In the case of `Cc1c(C(F)(F)C(=O)N[C@@H](C)c2ncc(C#N)cn2)c(=O)[nH]c2ccc(F)c(C(F)(F)F)c12` (single isomer, unassigned) [Compound 2514], the “Skeletal EC25” value in test [1] (setting [4]) is 0.16 µM. Besides, the “Ventricular EC25” value in test [2] (setting [5]) amounted to 1530 nM. In addition, the “Atrial EC25” value in test [3] (setting [6]) was 600 nM.

For `C[C@H](C(=O)N[C@H](C)c1ncc(C#N)cc1F)c1cc2c(F)c(F)ccc2[nH]c1=O` (single isomer, unassigned) [compound 2599], the “Skeletal EC25” value in test [1] (‡ Y125 value, not a Y75 value (125% activity relative to no compound), rabbit psoas myofibrils) was 100.00‡ μM. For the same compound, in test [2] (setting [5]), the “Ventricular EC25” value stood at 16660 nM. For the same compound, the “Atrial EC25” value in test [3] (setting [6]) was determined as 2160 nM.

With `Cc1c(CC(=O)N[C@H](C)c2ccc(C#N)cc2F)c(=O)[nH]c2ccnc(C(F)(F)F)c12` [compound 161], the “Skeletal EC25” value in test [1] (setting [7]) worked out at 0.11 µM. Besides, the “Ventricular EC25” value in test [2] (setting [8]) came to 1190 nM. In test [3] (setting [9]), the “Atrial EC25” value was found to be 340 nM.

As for `Cc1c([C@H](C)C(=O)N[C@@H](C)c2ccc(C#N)cc2F)c(=O)[nH]c2ccnc(C#N)c12` (single isomer, unassigned) [compound 174], the “Skeletal EC25” value in test [1] (setting [7]) was found to be 0.08 µM. For the same compound, the “Ventricular EC25” value in test [2] (setting [8]) was found to be 550 nM. Moreover, the “Atrial EC25” value in test [3] (setting [9]) was determined as 80 nM.

As for `Cc1c(CC(=O)N[C@H](C)c2ccc(C#N)cn2)c(=O)[nH]c2ccc(C(F)(F)F)nc12` [compound 459], the “Skeletal EC25” value in test [1] (setting [7]) was 100.00 µM. Moreover, the “Ventricular EC25” value in test [2] (setting [8]) worked out at 100000 nM. In test [3] (setting [9]), the “Atrial EC25” value came out at 3130 nM.

`Cc1ccccc1[C@@H](CO)NC(=O)Cc1c(C)c2c(C)nccc2[nH]c1=O` (single isomer, unassigned) [compound 337]: the “Skeletal EC25” value in test [1] (setting [7]) came out at 100.00 µM. The “Ventricular EC25” value in test [2] (setting [8]) was 100000 nM. Moreover, the “Atrial EC25” value in test [3] (setting [9]) stood at 100000 nM.

For `Cc1c(CC(=O)NC(C)c2cc(C#N)c(F)s2)c(=O)[nH]c2ccc(F)c(F)c12` (stereo not drawn) [compound 4001], the “Skeletal EC25” value in test [1] (Y75 value: concentration required to reduce myosin ATP-ase activity by 25%, Rabbit Psoas Prep pCa 25 GEOM_MEAN) is 0.16 µM. In addition, the “Ventricular EC25” value in test [2] (Y75 value: concentration required to reduce myosin ATP-ase activity by 25%, Porcine Ventricle Prep pCa 25 GEOM_MEAN) was determined as 580 nM. The “Atrial EC25” value in test [3] (Y75 value: concentration required to reduce myosin ATP-ase activity by 25%, Porcine Atria Prep pCa 25 GEOM_MEAN) was 260 nM.

For the compound `C[C@@H](NC(=O)C(F)(F)c1cc2c(C#N)c(F)ccc2[nH]c1=O)c1ncc(C#N)cc1F` (single isomer, unassigned) [Compound 2529], in test [1] (setting [4]), the “Skeletal EC25” value was 0.24 µM. For the same compound, in test [2] (setting [5]), the “Ventricular EC25” value worked out at 350 nM. In addition, the “Atrial EC25” value in test [3] (setting [6]) was determined as 240 nM.

With `Cc1c(C(F)(F)C(=O)N[C@@H]2CCc3cc(C#N)cnc32)c(=O)[nH]c2ccc(F)cc12` (single isomer, unassigned) [compound 2515], the “Skeletal EC25” value in test [1] (setting [4]) turned out to be 100.00 µM. Moreover, the “Ventricular EC25” value in test [2] (setting [5]) was determined as 100000 nM. Moreover, the “Atrial EC25” value in test [3] (setting [6]) amounted to 5060 nM.

On to `Cc1c(CC(=O)N[C@H](C)c2ccc(C#N)cn2)c(=O)[nH]c2cc(F)ccc12` [compound 1072], for which the “Skeletal EC25” value in test [1] (setting [4]) amounted to 100.00 µM. For the same compound, the “Ventricular EC25” value in test [2] (setting [5]) turned out to be 36860 nM. Also, the “Atrial EC25” value in test [3] (setting [6]) was 17570 nM.

Regarding `N#Cc1cnc2c(c1)CC[C@@H]2NC(=O)Cc1cc2c(F)c(F)ccc2[nH]c1=O` (single isomer, unassigned) [compound 8], the “Skeletal EC25” value in test [1] (setting [4]) came to 100.00 µM. Further, the “Ventricular EC25” value in test [2] (setting [5]) is 100000 nM. In addition, the “Atrial EC25” value in test [3] (setting [6]) came to 100000 nM.

Regarding `Cc1nccc2[nH]c(=O)c(C(F)(F)C(=O)N[C@@H](C)c3ccc(F)cc3F)c(C)c12` [compound 405], the “Skeletal EC25” value in test [1] (setting [7]) stood at 0.04 µM. For the same compound, the “Ventricular EC25” value in test [2] (setting [8]) was found to be 1120 nM. In addition, in test [3] (setting [9]), the “Atrial EC25” value is 150 nM.

For `Cc1c(C(F)(F)C(=O)N[C@@H](C)c2ccc(F)cc2F)c(=O)[nH]c2ccnc(Cl)c12` [compound 401], in test [1] (setting [7]), the “Skeletal EC25” value was determined as 0.02 µM. Also, the “Ventricular EC25” value in test [2] (setting [8]) was 200 nM. Moreover, the “Atrial EC25” value in test [3] (setting [9]) stood at 50 nM.

As to `C[C@H](NC(=O)Cc1cc2c(OCC(F)(F)F)nccc2[nH]c1=O)c1ccc(F)cc1F` [compound 436], the “Skeletal EC25” value in test [1] (setting [7]) worked out at 12.92 µM. Also, the “Ventricular EC25” value in test [2] (setting [8]) is 100000 nM. Moreover, in test [3] (setting [9]), the “Atrial EC25” value was found to be 100000 nM.

Source of the values: patent publication US12448369B2 (Edgewise Therapeutics, Inc., priority 2023, dated 2025).
